Experimental data published in US10583117B2, “Oxo-M and 4-PPBP induction of tenogenic differentiation of perivascular tendon stem cells” (The Trustees of Columbia University in the City of New York, priority 2016, dated 2020).
Entries after “also recorded” stand apart in the source; their conditions may differ.

Legend:
[1] = system: ERK1/2; test: Western blot, phosphorylation of ERK1/2 in PTSCs; type: cell-based, rat; conditions: 12 hours treatment in PTSCs
Procedure: (§1) Activation of FAK and ERK1/2 signaling by Oxo-M and 4-PPBP was further confirmed by western blot and siRNA knockdown (KD). […] With combined Oxo-M and 4-PPBP, both P-FAK and P-ERK1/2 were detected (FIG. 3A). […] In addition, siRNA KD of FAK and ERK1/2 were performed as described previously (Lee, et al., 2015, supra), which is hereby incorporated herein by reference in its entirety for all purposes.

[2] = system: CD146+ perivascular tendon stem/progenitor cells (PTSCs); type: cell-based, rat
[3] = system: FAK; test: Western blot, phosphorylation of FAK in PTSCs; type: cell-based, rat; conditions: 12 hours treatment in PTSCs
Procedure: as §1

[4] = system: FAK; test: Western blot, P-FAK in CD146- tendon cells; type: cell-based, rat; conditions: CD146− tendon cells (excluding PTSCs)
Procedure: as §1

[5] = system: fully transected rat patellar tendons; test: Healing of fully transected rat patellar tendon, delivery via fibrin glue; type: in vivo; conditions: for tendon healing, H&E staining: Oxo-M 1 mM, 4-PPBP 10 μM in fibrin; for alignment of collagen fibers (Picrosirius Red, automated digital image processing): n=6; for effect on induced tenogenic differentiation of PTSCs and tendon healing: overall statement

| SMILES | phosphorylation of ERK1/2 (P-ERK1/2) [1] | Scx gene expression [2] | Tn-C gene expression [2] | VIM gene expression [2] | phosphorylation of FAK (P-FAK) [3] | P-FAK band [4] | collagen fibers, polarized Picrosirius Red images ([5]; 1 week post-op) | tendon healing, H&E staining ([5]; 1 week post-op) | collagen fibers, polarized Picrosirius Red images ([5]; 2 weeks post-op) | collagen in healing zone, Masson's Trichrome staining ([5]; 2 weeks post-op) | tendon healing, H&E staining ([5]; 2 weeks post-op) | alignment of collagen fibers (Picrosirius Red, automated digital image processing) [5] | effect on induced tenogenic differentiation of PTSCs and tendon healing [5] | COL-I gene expression ([2]; maleate) | COL-III gene expression ([2]; maleate) |
| --- | --- | --- | --- | --- | --- | --- | --- | --- | --- | --- | --- | --- | --- | --- | --- |
| C[N+](C)(C)CC#CCN1CCCC1=O [Oxo-M, Oxotremorine methiodide] | resulted in phosphorylation | significant increases; also recorded: significantly increased | significant increases; also recorded: significantly increased | significant increases; also recorded: significantly increased | resulted in phosphorylation | no P-FAK band | disrupted collagen structure | disorganized scar-like tissue | disrupted collagen structure | disrupted collagen structure | scar-like healing | disoriented fibers | only minimal effect | – | – |
| O=C(O)/C=C\C(=O)O.c1ccc(CCCCN2CCC(c3ccccc3)CC2)cc1 [4-PPBP, 4-phenyl-1-(4-phenylbutyl)-piperidine maleate] | – | – | – | – | resulted in phosphorylation | no P-FAK band | disrupted collagen structure | disorganized scar-like tissue | disrupted collagen structure | disrupted collagen structure | scar-like healing | disoriented fibers | only minimal effect | elevated; also recorded: significantly increased | elevated; also recorded: significantly increased |
